Assays:
Assay type in all cases: functional
Streptococcus pneumoniae [1] = assay: Antimicrobial activity against penicillin- and erythromycin-resistant Streptococcus pneumoniae in presence of 2.5% horse blood
Haemophilus influenzae [2] = assay: Antimicrobial activity against LS2 Efflux knock-out Haemophilus influenzae
Staphylococcus aureus [3] = assay: Antimicrobial activity against vancomycin-susceptible Staphylococcus aureus ATCC 25923
Staphylococcus aureus [4] = assay: Antimicrobial activity against methicillin-sensitive Staphylococcus aureus ATCC 13709
Pseudomonas aeruginosa = assay: Antimicrobial activity against Pseudomonas aeruginosa ATCC 27853
Escherichia coli [5] = assay: Antimicrobial activity against Escherichia coli 50
Staphylococcus aureus [6] = assay: Antimicrobial activity against Staphylococcus aureus Oxford
Escherichia coli [7] = assay: Antimicrobial activity against Escherichia coli ATCC 25922
Streptococcus pneumoniae [8] = assay: Antimicrobial activity against penicillin- and erythromycin-resistant Streptococcus pneumoniae
Staphylococcus aureus [9] = assay: Antimicrobial activity against methicillin-resistant Staphylococcus aureus
Enterococcus faecium = assay: Antimicrobial activity against vancomycin-resistant Enterococcus faecium
Streptococcus pneumoniae [10] = assay: Antimicrobial activity against erythromycin-susceptible Streptococcus pneumoniae ATCC 49619
Enterococcus faecalis = assay: Antimicrobial activity against vancomycin-susceptible Enterococcus faecalis ATCC 29212
Escherichia coli [11] = assay: Antimicrobial activity against Escherichia coli 49
Haemophilus influenzae [12] = assay: Antimicrobial activity against Haemophilus influenzae ATCC 31517 MMSA

Measured: MIC

CCCCCCCCCN/C(C)=C1/C(=O)N2[C@@H](C(C)(C)C)OC[C@]2(C(=O)OC)C1=O
> 32 µg/mL: Streptococcus pneumoniae [1] | Haemophilus influenzae [2] | Staphylococcus aureus [3] | Staphylococcus aureus [4] | Pseudomonas aeruginosa | Escherichia coli [5] | Staphylococcus aureus [6] | Escherichia coli [7] | Streptococcus pneumoniae [8] | Staphylococcus aureus [9] | Enterococcus faecium | Streptococcus pneumoniae [10] | Enterococcus faecalis | Escherichia coli [11] | Haemophilus influenzae [12]

CCCCOCCCN/C(C)=C1/C(=O)N2[C@@H](C(C)(C)C)OC[C@]2(C(=O)OCC)C1=O
> 32 µg/mL: Streptococcus pneumoniae [1] | Haemophilus influenzae [2] | Staphylococcus aureus [3] | Staphylococcus aureus [4] | Pseudomonas aeruginosa | Escherichia coli [5] | Staphylococcus aureus [6] | Escherichia coli [7] | Streptococcus pneumoniae [8] | Staphylococcus aureus [9] | Enterococcus faecium | Streptococcus pneumoniae [10] | Enterococcus faecalis | Escherichia coli [11] | Haemophilus influenzae [12]

COC(=O)[C@@]12CO[C@@H](C(C)(C)C)N1C(=O)/C(=C(\C)NCC1CCC3CC1C3(C)C)C2=O (stereo not given in full)
> 32 µg/mL: Streptococcus pneumoniae [1] | Haemophilus influenzae [2] | Staphylococcus aureus [3] | Staphylococcus aureus [4] | Pseudomonas aeruginosa | Escherichia coli [5] | Staphylococcus aureus [6] | Escherichia coli [7] | Streptococcus pneumoniae [8] | Staphylococcus aureus [9] | Enterococcus faecium | Streptococcus pneumoniae [10] | Enterococcus faecalis | Escherichia coli [11] | Haemophilus influenzae [12]

CCOC(=O)[C@]12CO[C@H](C(C)(C)C)N1C(=O)/C(=C(\C)NCCCN1CCOCC1)C2=O
> 32 µg/mL: Streptococcus pneumoniae [1] | Haemophilus influenzae [2] | Staphylococcus aureus [3] | Staphylococcus aureus [4] | Pseudomonas aeruginosa | Escherichia coli [5] | Staphylococcus aureus [6] | Escherichia coli [7] | Streptococcus pneumoniae [8] | Staphylococcus aureus [9] | Enterococcus faecium | Streptococcus pneumoniae [10] | Enterococcus faecalis | Escherichia coli [11] | Haemophilus influenzae [12]

CCOC(=O)[C@]12CO[C@H](C(C)(C)C)N1C(=O)/C(=C(\C)NCc1cccc(CN3CCC(C)CC3)c1)C2=O
> 32 µg/mL: Streptococcus pneumoniae [1] | Haemophilus influenzae [2] | Staphylococcus aureus [3] | Staphylococcus aureus [4] | Pseudomonas aeruginosa | Escherichia coli [5] | Staphylococcus aureus [6] | Escherichia coli [7] | Streptococcus pneumoniae [8] | Staphylococcus aureus [9] | Enterococcus faecium | Streptococcus pneumoniae [10] | Enterococcus faecalis | Escherichia coli [11] | Haemophilus influenzae [12]

CCOC(=O)[C@]12CO[C@H](C(C)(C)C)N1C(=O)/C(=C(\C)NCc1ccc(C)o1)C2=O
> 32 µg/mL: Streptococcus pneumoniae [1] | Haemophilus influenzae [2] | Staphylococcus aureus [3] | Staphylococcus aureus [4] | Pseudomonas aeruginosa | Escherichia coli [5] | Staphylococcus aureus [6] | Escherichia coli [7] | Streptococcus pneumoniae [8] | Staphylococcus aureus [9] | Enterococcus faecium | Streptococcus pneumoniae [10] | Enterococcus faecalis | Escherichia coli [11] | Haemophilus influenzae [12]

CCOC(=O)[C@]12CO[C@H](C(C)(C)C)N1C(=O)/C(=C(\C)N1CCN(C3CCCCC3)CC1)C2=O
> 32 µg/mL: Streptococcus pneumoniae [1] | Haemophilus influenzae [2] | Staphylococcus aureus [3] | Staphylococcus aureus [4] | Pseudomonas aeruginosa | Escherichia coli [5] | Staphylococcus aureus [6] | Escherichia coli [7] | Streptococcus pneumoniae [8] | Staphylococcus aureus [9] | Enterococcus faecium | Streptococcus pneumoniae [10] | Enterococcus faecalis | Escherichia coli [11] | Haemophilus influenzae [12]

COCCOC(=O)[C@]12CO[C@H](C(C)(C)C)N1C(=O)/C(=C(\C)NCCOc1ccccc1)C2=O
> 32 µg/mL: Streptococcus pneumoniae [1] | Haemophilus influenzae [2] | Staphylococcus aureus [3] | Staphylococcus aureus [4] | Pseudomonas aeruginosa | Escherichia coli [5] | Staphylococcus aureus [6] | Escherichia coli [7] | Streptococcus pneumoniae [8] | Staphylococcus aureus [9] | Enterococcus faecium | Streptococcus pneumoniae [10] | Enterococcus faecalis | Escherichia coli [11] | Haemophilus influenzae [12]

C/C(NCCOc1ccccc1)=C1/C(=O)[C@@H]2CO[C@@H](C(C)(C)C)N2C1=O
> 32 µg/mL: Streptococcus pneumoniae [1] | Haemophilus influenzae [2] | Staphylococcus aureus [3] | Staphylococcus aureus [4] | Pseudomonas aeruginosa | Escherichia coli [5] | Staphylococcus aureus [6] | Escherichia coli [7] | Streptococcus pneumoniae [8] | Staphylococcus aureus [9] | Enterococcus faecium | Streptococcus pneumoniae [10] | Enterococcus faecalis | Escherichia coli [11] | Haemophilus influenzae [12]

C/C(NCCOc1ccccc1)=C1/C(=O)[C@@H]2CCCC(=O)N2C1=O
> 32 µg/mL: Streptococcus pneumoniae [1] | Haemophilus influenzae [2] | Staphylococcus aureus [3] | Staphylococcus aureus [4] | Pseudomonas aeruginosa | Escherichia coli [5] | Staphylococcus aureus [6] | Escherichia coli [7] | Streptococcus pneumoniae [8] | Staphylococcus aureus [9] | Enterococcus faecium | Streptococcus pneumoniae [10] | Enterococcus faecalis | Escherichia coli [11] | Haemophilus influenzae [12]

C/C(NCCOc1ccccc1Cl)=C1/C(=O)[C@@H]2CCCC(=O)N2C1=O
> 32 µg/mL: Streptococcus pneumoniae [1] | Haemophilus influenzae [2] | Staphylococcus aureus [3] | Staphylococcus aureus [4] | Pseudomonas aeruginosa | Escherichia coli [5] | Staphylococcus aureus [6] | Escherichia coli [7] | Streptococcus pneumoniae [8] | Staphylococcus aureus [9] | Enterococcus faecium | Streptococcus pneumoniae [10] | Enterococcus faecalis | Escherichia coli [11] | Haemophilus influenzae [12]

C/C(NCCOc1ccccc1Cl)=C1/C(=O)CNC1=O
> 32 µg/mL: Streptococcus pneumoniae [1] | Haemophilus influenzae [2] | Staphylococcus aureus [3] | Staphylococcus aureus [4] | Pseudomonas aeruginosa | Escherichia coli [5] | Staphylococcus aureus [6] | Escherichia coli [7] | Streptococcus pneumoniae [8] | Staphylococcus aureus [9] | Enterococcus faecium | Streptococcus pneumoniae [10] | Enterococcus faecalis | Escherichia coli [11] | Haemophilus influenzae [12]

COC(=O)[C@@]12CO[C@@H](C(C)(C)C)N1C(=O)/C(=C(\C)Nc1ccccc1)C2=O
> 32 µg/mL: Streptococcus pneumoniae [1] | Haemophilus influenzae [2] | Staphylococcus aureus [3] | Staphylococcus aureus [4] | Pseudomonas aeruginosa | Escherichia coli [5] | Staphylococcus aureus [6] | Escherichia coli [7] | Streptococcus pneumoniae [8] | Staphylococcus aureus [9] | Enterococcus faecium | Streptococcus pneumoniae [10] | Enterococcus faecalis | Escherichia coli [11] | Haemophilus influenzae [12]

CCOC(=O)[C@]12CO[C@H](C(C)(C)C)N1C(=O)/C(=C(\C)Nc1ncc(Cl)cn1)C2=O
> 32 µg/mL: Streptococcus pneumoniae [1] | Haemophilus influenzae [2] | Staphylococcus aureus [3] | Staphylococcus aureus [4] | Pseudomonas aeruginosa | Escherichia coli [5] | Staphylococcus aureus [6] | Escherichia coli [7] | Streptococcus pneumoniae [8] | Staphylococcus aureus [9] | Enterococcus faecium | Streptococcus pneumoniae [10] | Enterococcus faecalis | Escherichia coli [11] | Haemophilus influenzae [12]

CCCCCCC/C=C/C(=O)N1C(=O)/C(=C(\C)Nc2ccc(N3CCOCC3)cc2)C(=O)C1CC(C)C (stereo not given)
> 32 µg/mL: Streptococcus pneumoniae [1] | Haemophilus influenzae [2] | Staphylococcus aureus [3] | Staphylococcus aureus [4] | Pseudomonas aeruginosa | Escherichia coli [5] | Staphylococcus aureus [6] | Escherichia coli [7] | Streptococcus pneumoniae [8] | Staphylococcus aureus [9] | Enterococcus faecium | Streptococcus pneumoniae [10] | Enterococcus faecalis | Escherichia coli [11] | Haemophilus influenzae [12]

CCCCCCN/C(=C1/C(=O)CNC1=O)c1ccccc1
> 32 µg/mL: Streptococcus pneumoniae [1] | Haemophilus influenzae [2] | Staphylococcus aureus [3] | Staphylococcus aureus [4] | Pseudomonas aeruginosa | Escherichia coli [5] | Staphylococcus aureus [6] | Escherichia coli [7] | Streptococcus pneumoniae [8] | Staphylococcus aureus [9] | Enterococcus faecium | Streptococcus pneumoniae [10] | Enterococcus faecalis | Escherichia coli [11] | Haemophilus influenzae [12]

O=C1CNC(=O)/C1=C(\NC1CCCCC1)c1cccc2ccccc12
> 32 µg/mL: Streptococcus pneumoniae [1] | Haemophilus influenzae [2] | Staphylococcus aureus [3] | Staphylococcus aureus [4] | Pseudomonas aeruginosa | Escherichia coli [5] | Staphylococcus aureus [6] | Escherichia coli [7] | Streptococcus pneumoniae [8] | Staphylococcus aureus [9] | Enterococcus faecium | Streptococcus pneumoniae [10] | Enterococcus faecalis | Escherichia coli [11] | Haemophilus influenzae [12]

O=C1CNC(=O)/C1=C(\NCc1ccccc1)c1cccc2ccccc12
> 32 µg/mL: Streptococcus pneumoniae [1] | Haemophilus influenzae [2] | Staphylococcus aureus [3] | Staphylococcus aureus [4] | Pseudomonas aeruginosa | Escherichia coli [5] | Staphylococcus aureus [6] | Escherichia coli [7] | Streptococcus pneumoniae [8] | Staphylococcus aureus [9] | Enterococcus faecium | Streptococcus pneumoniae [10] | Enterococcus faecalis | Escherichia coli [11] | Haemophilus influenzae [12]

CCCCCCCCCCCCC/C(Nc1ccccc1)=C1\C(=O)CNC1=O
> 32 µg/mL: Streptococcus pneumoniae [1] | Haemophilus influenzae [2] | Staphylococcus aureus [3] | Staphylococcus aureus [4] | Pseudomonas aeruginosa | Escherichia coli [5] | Staphylococcus aureus [6] | Escherichia coli [7] | Streptococcus pneumoniae [8] | Staphylococcus aureus [9] | Enterococcus faecium | Streptococcus pneumoniae [10] | Enterococcus faecalis | Escherichia coli [11] | Haemophilus influenzae [12]

CCCCCC/C(Nc1ccc(N2CCOCC2)cc1)=C1\C(=O)CNC1=O
> 32 µg/mL: Streptococcus pneumoniae [1] | Haemophilus influenzae [2] | Staphylococcus aureus [3] | Staphylococcus aureus [4] | Pseudomonas aeruginosa | Escherichia coli [5] | Staphylococcus aureus [6] | Escherichia coli [7] | Streptococcus pneumoniae [8] | Staphylococcus aureus [9] | Enterococcus faecium | Streptococcus pneumoniae [10] | Enterococcus faecalis | Escherichia coli [11] | Haemophilus influenzae [12]

CCCCCCCCCCC/C(Nc1ccc(N)cc1)=C1\C(=O)CN(CCCCCC)C1=O
> 32 µg/mL: Streptococcus pneumoniae [1] | Haemophilus influenzae [2] | Staphylococcus aureus [3] | Staphylococcus aureus [4] | Pseudomonas aeruginosa | Escherichia coli [5] | Staphylococcus aureus [6] | Escherichia coli [7] | Streptococcus pneumoniae [8] | Staphylococcus aureus [9] | Enterococcus faecium | Streptococcus pneumoniae [10] | Enterococcus faecalis | Escherichia coli [11] | Haemophilus influenzae [12]

— ChEMBL document CHEMBL3232809, “Synthesis, antibiotic activity and structure-activity relationship study of some 3-enaminetetramic acids” (2014)
